Data published in US20230373972A1, “PIPERAZINE DERIVATIVE, PREPARATION METHOD THEREFOR AND USE THEREOF” (Zhejiang Hisun Pharmaceutical Co., Ltd., priority 2020, published 2023).
Like-named read-outs stand apart in the source and are kept apart here.

Tests used:
[1] = Pharmacokinetics in SD rat; type: in vivo; conditions: male, plasma; for AUC(0-t): read-out: Curve area AUC0-t; for half-life: read-out: Half-life period T1/2(h) (converted); for Cmax: read-out: Blood concentration Cmax
Procedure: Taking a SD rat as a test animal, the SD rat was administrated with the compound of the present invention by intravenous injection and/or intragastric administration, and drug concentrations in plasma at different times were determined by a IC/MS/MS method to study pharmacokinetic characteristics of the compound of the present invention in the SD rat.
SD rats, male, 195 g to 235 g, 6 weeks old to 8 weeks old, purchased from Shanghai JieSiJie Laboratory Animal Co., Ltd.
Preparation of drug administrated by intravenous injection: a proper amount of compound to be tested was added to a proper amount of DMAC; (30% Soltol HS 15): Saline=10%: 10%: 80% (v/v/v), and shaken in a vortex manner, so as to prepare a final solution with a concentration of 0.5 mg/mL.
Preparation of drug administrated by intragastric administration: a proper amount of compound to be tested was added to a proper amount of DMAC: (30% Soltol HS 15): Saline=10%: 10%: 80% (v/v/v), and shaken in a vortex manner, so as to prepare a final solution with a concentration of 1 mg/mL.
SD rats were divided into an intravenous injection group of the compound to be tested (3 rats/group) and an intragastric administration group (3 rats/group) of the compound to be tested.
Intravenous injection group: the drug was administrated by dorsalis pedis vein injection (according to a dosage of 1 mg/kg and a volume of 2 mL/kg) without fasting.
Intragastric administration group: the drug was administrated by intragastric administration (according to a dosage of 10 mg/kg and a volume of 10 mL/kg) after fasting overnight, and food was taken 4 hours after administration.
Intravenous injection group: about 150 μL of blood was collected into an EDTA-K2 anticoagulant tube through a jugular vein 0.083 hour, 0.25 hour, 0.5 hour, 1 hour, 2 hours, 4 hours, 8 hours and 24 hours after administration.
Intragastric administration group; about 150 μL of blood was collected into an EDTA-K2 anticoagulant tube through a jugular vein 0.25 how, 0.5 hour, 1 hour, 2 hours, 4 hours, 8 hours and 24 hours after administration.
The blood sample was stored in wet ice first, and plasma was centrifugally separated within 15 minutes after sampling (centrifugation conditions: 2,000 g, 4° C., 5 minutes). The collected upper plasma was stored at −70° C. before analysis.
Contents of the compound to be tested in rat plasma after intravenous injection and intragastric administration were determined by LC-MS/MS.

human plasma = experiment: In-vitro anticoagulation on human plasma (APTT kit, coagulation time); conditions: concentration of the compound when the coagulation time (APTT) was prolonged twice
Procedure: The following method was used to determine the in-vitro anticoagulation of the compound of the present invention in the human plasma. In the method, an APTT kit of the MediRox company was used to test. The APTT kit was purchased from MediRox (article number MRX930), and the human plasma was prepared internally.
The preparation of the human plasma was briefly described as follows: human plasma was collected in a blood collection tube containing sodium citrate, and centrifuged at 3,000 rpm for 10 minutes at room temperature, and plasma was collected, and packaged separately and stored at −80° C.
An APTT test process was briefly described as follows: a test compound was dissolved in DMSO to prepare a 10 mM storage solution first, then the test compound was diluted with DMSO by a triple gradient, and a final concentration of the test compound in a reaction system ranged from 217 μM to 0.03 μM. 4 μL, of test compounds at different concentrations diluted with DMSO were added to a centrifuge tube containing 180 μL of plasma, and 4 μL of DMSO was added to a blank group, shaken and mixed evenly, and incubated at 37° C. for 5 minutes. Subsequently, an APTT reagent was placed in a reagent holder according to instrument requirements, the incubated plasma sample was placed in a detection position of a coagulation analyzer, and a coagulation time was determined and recorded (s). With a final concentration of the compound as an abscissa and Ratio (Ratio=TiT0, wherein T0 was a coagulation time of a blank control, and Ti was a coagulation time of a compound to be tested) as an ordinate, a coagulation dose-effect curve was drawn by Graph Pad Prisms, and a concentration of the compound when the coagulation time was prolonged twice was calculated, which was namely a CT2 value, as shown in Table 2.

[2] = molecular target: T1, Native human Factor XIa protease (Homo sapiens, UniProt P03951); experiment: Inhibition of activity of Factor XIa protease (chromogenic substrate S-2366); type: biochemical; conditions: S-2366 1 mM, 37° C. 10 minutes, absorption at 405 nm
T1 construct: The Native human Factor XIa protease was purchased from Abcam; purchased Abcam ab62411
Text: The following method was used to determine an inhibition degree of the compound of the present invention on an activity of Native human Factor XIa protease in vitro. In the method, a Factor XIa chromogenic substrate was used to test the inhibition degree on the activity of the Factor XIa protease. The Native human Factor XIa protease was purchased from Abcam (article number ab62411), and S-2366 was purchased from Chromogenix (article number 82109039). An experimental process was briefly described as follows: a test compound was dissolved in DMSO to prepare a 10 mM storage solution first, then the compound was diluted with a Factor XIa reaction buffer (100 mM Tris-HCl, 200 mM NaCl, 0.02% Tween 20, pH 7.4) by a quadruple gradient, and a final concentration of the test compound in a reaction system ranged from 10,000 nM to […]. The reaction was carried out in a 384-well microplate. 2 μL of the test compounds at different concentrations diluted with the reaction buffer were added to wells first, and 2 μL of 1% DMSO (a final concentration of DMSO in the reaction system was 0.1%) was used to replace blank and control wells. Subsequently, 8 μL of enzyme working solution (a final concentration of Factor XIa was […]) was added to each well, and 8 μL of Factor XIa reaction buffer was used to replace the blank well, centrifuged for 30 seconds, and incubated on ice for 5 minutes. Finally, 10 μL of substrate working solution (a final concentration of S-2366 was 1 mM) was added to each well, and centrifuged for 30 seconds, and the reaction was started. The solution was incubated at 37° C. for 10 minutes to determine a light absorption value at 405 nm. By comparing with a light absorption value of the control group (0.1% DMSO), a percentage inhibition rate of the compound at each concentration was calculated, and nonlinear regression analysis was carried out on value-inhibition rate with the concentration of the compound by GraphPad Prism 5 software, so as to obtain an IC50 value of the compound, as shown in Table 1.

[3] = iv, injection administration 1 mg/kg
[4] = po, intragastric administration 10 mg/kg

T1 sequence (P03951 388-625 limits assumed): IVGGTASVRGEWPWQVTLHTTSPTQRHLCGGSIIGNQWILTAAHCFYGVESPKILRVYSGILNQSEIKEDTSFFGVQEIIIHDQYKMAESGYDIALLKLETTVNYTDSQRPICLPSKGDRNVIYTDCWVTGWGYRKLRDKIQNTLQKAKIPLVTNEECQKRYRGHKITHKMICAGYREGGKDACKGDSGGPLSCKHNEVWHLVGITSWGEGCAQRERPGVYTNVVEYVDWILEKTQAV
T1 sequence (P03951 19-387 partner limits assumed): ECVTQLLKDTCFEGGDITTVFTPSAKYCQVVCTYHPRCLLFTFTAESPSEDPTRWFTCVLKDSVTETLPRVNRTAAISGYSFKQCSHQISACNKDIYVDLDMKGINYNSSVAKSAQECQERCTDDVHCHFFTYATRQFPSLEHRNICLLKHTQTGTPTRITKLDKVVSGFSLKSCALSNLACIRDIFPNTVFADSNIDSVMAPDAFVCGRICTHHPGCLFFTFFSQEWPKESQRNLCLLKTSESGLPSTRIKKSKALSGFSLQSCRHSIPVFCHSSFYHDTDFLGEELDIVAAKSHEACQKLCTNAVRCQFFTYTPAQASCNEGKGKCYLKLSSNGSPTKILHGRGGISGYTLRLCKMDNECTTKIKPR

| IC50 [2] [nM] | SMILES | CT2 (human plasma) [µM] | also measured |
| --- | --- | --- | --- |
| 17.6 | O=C(Nc1ccn2nccc2c1)C(Cc1ccccc1)N1CC(=O)N(c2cc(Cl)ccc2-n2cnnn2)CC1=O (stereo not drawn) [Example 37, 2-(4-(5-chloro-2-(1H-tetrazol-1-yl)phenyl)-2,5-dioxopiperazin-1-yl)-3-phenyl-N-(pyrazolo[1.5-a]pyridin-5-yl)propanamide] | 7.5 | – |
| 32 | NC(=O)c1ccc(NC(=O)C(Cc2ccccc2)N2CC(=O)N(c3cc(Cl)ccc3-n3cnnn3)CC2=O)cc1F (stereo not drawn) [Example 35, 4-(2-(4-(5-Chloro-2-(1H-tetrazol-1-yl)phenyl)-2,5-dioxopiperazin-1-yl)-3-phenylpropanamido)-2-fluorobenzamide] | 5.8 | – |
| 17.6 | O=C(O)c1ccc(NC(=O)C(Cc2ccccc2)N2CC(=O)N(c3cc(Cl)ccc3-n3cnnn3)CC2=O)cc1 (stereo not drawn) [Example 52, 4-(2-(4-(5-chloro-2-(1H-tetrazol-1-yl)phenyl)-2,5-dioxopiperazin-1-yl)-3-phenylpropanamido)benzoic Acid] | 2.0 | – |
| 48.6 | [2H]C([2H])([2H])n1cc2cc(NC(=O)C(Cc3ccc(F)cc3)N3CC(=O)N(c4cc(Cl)ccc4-n4cc(Cl)nn4)CC3=O)ccc2n1 (stereo not drawn) [Example 114, 2-(4-(5-chloro-2-(4-chloro-1H-1,2,3-triazol-1-yl)phenyl)-2,5-dioxopiperazin-1-yl)-3-(4-fluorophenyl)-N-(2-(methyl-d3)-2H-indazol-5-yl)propanamide] | 14.9 | – |
| 38.5 | Cn1cc2cc(NC(=O)C(Cc3ccc(F)cc3)N3CC(=O)N(c4cc(Cl)ccc4-n4cnnn4)CC3=O)ccc2n1 (stereo not drawn) [Example 41, 2-(4-(5-Chloro-2-(1H-tetrazol-1-yl)phenyl)-2,5-dioxopiperazin-1-yl)-3-(4-fluorophenyl)-N-(2-methyl-2H-indazol-5-yl)propanamide] | 8.5 | – |
| 26.1 | O=C(Nc1ccc2c(cnn2C(F)F)c1)C(Cc1ccccc1)N1CC(=O)N(c2cc(Cl)ccc2-n2cnnn2)CC1=O (stereo not drawn) [Example 33, 2-(4-(5-chloro-2-(1H-tetrazol-1-yl)phenyl)-2,5-dioxopiperazin-1-yl)-N-(1-(difluoromethyl)-1H-indazol-5-yl)-3-phenylpropanamide] | 18.5 | – |
| 16.9 | O=C(O)c1ccc(NC(=O)C(Cc2ccccc2)N2CC(=O)N(c3cc(Cl)ccc3-n3cc(Cl)nn3)CC2=O)cc1 (stereo not drawn) [Example 26, 4-(2-(4-(5-Chloro-2-(4-chloro-1H-1,2,3-triazol-1-yl)phenyl)-2,5-dioxopiperazin-1-yl)-3-phenylpropanamido)benzoic Acid] | 7.0 | – |

The next lines start with the compound.

| SMILES | IC50 [2] [nM] | CT2 (human plasma) [µM] | also measured |
| --- | --- | --- | --- |
| Cn1ccc(C[C@H](C(=O)Nc2ccc3nn(C)cc3c2)N2CC(=O)N(c3cc(Cl)ccc3-n3cc(Cl)nn3)CC2=O)n1 [Example 113, (R)-2-(4-(5-chloro-2-(4-chloro-1H-1,2,3-triazol-1-yl)phenyl)-2,5-dioxopiperazin-1-yl)-3-(1-methyl-1H-pyrazol-3-yl)-N-(2-methyl-2H-indazol-5-yl)propanamide] | – | – | AUC(0-t) [1, 3]: 552 ± 108 ng·h/mL; half-life [1, 3]: 0.5 ± 0.0254 h; bioavailability ([1]; po, intragastric 10 mg/kg vs injection 1 mg/kg, read-out: Bioavailability F(%)): 54.7 ± 46%; Cmax [1, 4]: 3420 ± 2350 ng/mL; AUC(0-t) [1, 4]: 3020 ± 2540 ng·h/mL; half-life [1, 4]: 1.38 ± 0.297 h |
| COC(=O)c1ccc(NC(=O)C(Cc2ccccc2)N2CC(=O)N(c3cc(Cl)ccc3-n3cnnn3)CC2=O)cc1 (stereo not drawn) [Example 5, Methyl 4-(2-(4-(5-Chloro-2-(1H-tetrazol-1-yl)phenyl)-2,5-dioxopiperazin-1-yl)-3-phenylpropanamido)benzoate] | 29.9 | 17.8 | – |
| CC(=O)c1ccc(NC(=O)C(Cc2ccccc2)N2CC(=O)N(c3cc(Cl)ccc3-n3cnnn3)CC2=O)cc1 (stereo not drawn) [Example 17] | 34.8 | 11.2 | – |
| O=C(Nc1ccc(N2CCOC2=O)cc1)C(Cc1ccccc1)N1CC(=O)N(c2cc(Cl)ccc2-n2cnnn2)CC1=O (stereo not drawn) [Example 14, 2-(4-(5-Chloro-2-(1H-tetrazol-1-yl)phenyl)-2,5-dioxopiperazin-1-yl)-N-(4-(2-oxooxazolidin-3-yl)phenyl)-3-phenylpropanamide] | 44 | 14.3 | – |
| Cn1cc2cc(NC(=O)C(CC3CCCCO3)N3CC(=O)N(c4cc(Cl)ccc4-n4cc(Cl)nn4)CC3=O)ccc2n1 (stereo not drawn) [Example 117, 2-(4-(5-Chloro-2-(4-chloro-1H-1,2,3-triazol-1-yl)phenyl)-2,5-dioxopiperazin-1-yl)-N-(2-methyl-2H-indazol-5-yl)-3-(tetrahydro-2H-pyran-2-yl)propanamide] | – | 6.3 | Cmax [1, 4]: 2220 ± 552 ng/mL; AUC(0-t) [1, 4]: 3940 ± 984 ng·h/mL; half-life [1, 4]: 0.735 ± 0.0242 h |
| O=C1Cc2cc(NC(=O)C(Cc3ccccc3)N3CC(=O)N(c4cc(Cl)ccc4-n4cnnn4)CC3=O)ccc2N1 (stereo not drawn) [Example 13, 2-(4-(5-Chloro-2-(1H-tetrazol-1-yl)phenyl)-2,5-dioxopiperazin-1-yl)-N-(2-oxoindolin-5-yl)-3-phenylpropanamide] | 14.9 | 4.0 | – |
| O=C(O)c1cccc(NC(=O)C(Cc2ccccc2)N2CC(=O)N(c3cc(Cl)ccc3-n3cnnn3)CC2=O)c1 (stereo not drawn) [Example 9, 3-(2-(4-(5-Chloro-2-(1H-tetrazol-1-yl)phenyl)-2,5-dioxopiperazin-1-yl)-3-phenylpropanamido)benzoic Acid] | 7.8 | 2.9 | – |
| CN1Cc2cc(NC(=O)C(Cc3ccccc3)N3CC(=O)N(c4cc(Cl)ccc4-n4cnnn4)CC3=O)ccc2C1=O (stereo not drawn) [Example 12, 2-(4-(5-Chloro-2-(1H-tetrazol-1-yl)phenyl)-2,5-dioxopiperazin-1-yl)-N-(2-methyl-1-oxoisoindolin-5-yl)-3-phenylpropanamide] | 22.8 | 4.4 | – |
